Experimental data from patent US20060030562A1, “Use of an inhibitor of cathepsin-S-or-B to treat or prevent chronic obstructive pulmonary disease” (AVENTIS PHARMACEUTICALS INC., priority 2003, published 2006).
Entries after “also recorded” stand apart in the source; their conditions may differ. Peptide text beside a SMILES is read from it. * marks the point of attachment. Cbz = O=C(OCc1ccccc1)*; CH2F = FC*

Assays:
Format in all cases: in vivo
[1] = test system: CC10-rtTA-IFN-γ transgene (+) mice; assay: IFN-γ-induced lung cell apoptosis (TUNEL) in transgenic mice; details: for IFN-γ-induced apoptosis (TUNEL): transgene (+) mice on dox, 14150 10 mg/kg/day by gavage, CA074 10 mg/Kg/day, leupeptin 15 mg/kg I.P., vs vehicle
Excerpt: (§1) CC10-rtTA-IFN-γ mice that had been generated in our laboratory and bred for at least 10 generations onto a Balb/c background were used in these studies. These are dual transgene positive animals in which the reverse tetracycline transactivator (rtTA) drives the expression of the murine IFN-γ gene in a lung-specific and externally regulatable fashion. The transgene in these mice is activated by adding doxycycline (dox) to the animal's drinking water. These mice were maintained as dual transgene (+) heterozygotes (refered to as transgene (+) hereafter).
(§2) CC 10-rtTA-IFN-γ mice and littermate controls were maintained on normal water until they were 4-6 weeks old.
End labeling of exposed 3′-OH ends of DNA fragments in paraffin embedded tissue was undertaken with the TUNEL in situ cell death detection kit AP (Roche Diagnostics, Calif., USA) using the instructions provided by the manufacturer. After staining, 20 fields of alveoli were randomly chosen and 2000 nuclei were counted. The labeled cells were expressed as percentage of total nuclei.

[2] = test system: CC10-rtTA-IFN-γ transgene (+) mice; assay: IFN-γ-induced emphysema (lung volume, chord length, histology, compliance) in transgenic mice; details: transgene (+) mice on dox, Z-VAD-fmk 3 μg/kg/day I.P., 14150 10 mg/kg/day by gavage, CA074 10 mg/Kg/day, leupeptin 15 mg/kg I.P., vs vehicle
Excerpt: as §1, §2
(§3) Animals were sacrificed via cervical dislocation, a median sternotomy was performed, and right heart perfusion was accomplished with calcium- and magnesium-free PBS to clear the pulmonary intravascular space. The lungs were then fixed to pressure (25 cm) with neutral buffered 10% formalin, fixed overnight in 10% formalin, embedded in paraffin, sectioned at 5 μm and stained. Hematoxylin and eosin (H&E) stains were performed in the Research Histology Laboratory of the Department of Pathology at Yale University School of Medicine.
In brief, the trachea was cannulated, the lungs were degassed and the lungs and heart were removed en bloc and inflated with PBS at 25 cm of pressure. The size of the lung was evaluated via volume displacement. Compliance was calculated as the change in volume divided by the change in pressure.

[3] = test system: CC10-rtTA-IFN-γ transgene (+) mice; assay: Lung mRNA encoding cathepsins and MMPs (RT-PCR, real-time RT-PCR); details: transgene (+) mice on dox 2 weeks
[4] = test system: CC10-rtTA-IFN-γ transgene (+) mice; assay: IFN-γ-induced BAL and tissue inflammation; details: transgene (+) mice on dox 2 weeks
Experimental: Mice were euthanized, the trachea was isolated by blunt dissection, and tubing was secured in the airway. Two volumes of 1 mL of PBS with 0.1% BSA were then instilled and gently aspirated and pooled. Each BAL fluid sample was centrifuged, and the supernatants were stored in −70° C. until used The levels of IFN-γ were determined using a commercial ELISA (R&D Systems Inc., Minneapolis, Minn., USA) as per the manufacturer's instructions.
as §3

Row | SMILES | IFN-γ-induced apoptosis (TUNEL) [1] | IFN-γ-induced emphysema (lung volume, chord length, alveolar histology, compliance) [2] | IFN-γ-induced increase in mRNA encoding cathepsin B, cathepsin S and MMPs-2 and -14 [3] | MMP-9 mRNA induction [3] | levels of mRNA encoding cathepsin H and MMPs-9 and -12 [3] | decrease of the levels of IFN-γ-induced apoptosis ([1]; transgene (+) mice on dox 2 weeks, Z-VAD-fmk 3 μg/kg/day I.P. vs vehicle) [%] | IFN-γ-induced emphysema (lung volume, chord length, alveolar histology, compliance) ([2]; listed as Z-VAD-fink) | IFN-γ-induced BAL total cell, neutrophil, lymphocyte and macrophage alterations and tissue inflammation [4]
1 | CC[C@H](NC(=O)[C@H](CS(=O)(=O)CC(C)C)NC(=O)N1CCOCC1)C(=O)c1nc2ccccc2o1 [compound 14150] | significant decreases; also recorded: significantly inhibited | significant decreases; also recorded: significantly inhibited | – | – | – | – | – | –
2 | CC(=O)N[C@@H](CC(C)C)C(=O)N[C@@H](CC(C)C)C(=O)N[C@H](C=O)CCCNC(=N)N [leupeptin] | – | – | decreased | induced in am leupeptin-dependent fashion | – | – | – | –
3 | COC(=O)C[C@H](NC(=O)[C@H](C)NC(=O)[C@@H](NC(=O)OCc1ccccc1)C(C)C)C(=O)CF [Z-VAD-fmk] (Cbz-Val-Ala-Asp(OMe)-CH2F) | – | decreased the emphysema generating effects of IFN-γ | markedly ameliorated | – | not similarly altered | ≥ 85 | only partially abrogated | markedly ameliorated
4 | CCCNC(=O)[C@H]1O[C@@H]1C(=O)N[C@H](C(=O)N1CCC[C@H]1C(=O)O)[C@@H](C)CC (relative stereo) [CA074, N-(L-3-trans-propylcarbamoyl-oxirane-2-carbonyl)-L-isoleucyl-L-proline] | significant decreases | significant decreases | – | – | – | – | – | –
